Laboratory results published in PubChem BioAssay AID1963428 (Molecular Pharmacology Branch, DTP, NCI, 2024).

System: 171881-019-R-J1-PDC complex spheroid growth, % test/control
Assay: Anticancer human tumor 171881-019-R-J1-PDC patient-derived invasive breast carcinoma cell line growth inhibition [Asc]
Conditions: for IC50: curve of first compound; for viability, T/C: stronger effect = lower value
Outline: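 Concentration series start at each agent's clinical Cmax, or at 10 microM when none is established, and drop in half-log steps; agents are applied alone or together to complex spheroids built with HUVEC and hMSC.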
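Throughout, for viability, T/C: spheroids exposed to compounds for 7 days.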

SMILES: O=C(c1ccc(F)c(F)c1Nc1ccc(I)cc1F)N1CC(O)([C@@H]2CCCCN2)C1 + CCN1C(C(=O)NC23CCC(C(=O)O)(CC2)CC3)C(c2cccc(Cl)c2F)C2(C(=O)Nc3cc(Cl)ccc32)C12CCCCC2
- IC50 (second compound 0.03 µM): 511 nM
- IC50 (second compound 0.0949 µM): 660 nM
- IC50 (second compound 0.3 µM): 581 nM
- IC50 (second compound 0.949 µM): 455 nM
- IC50 (second compound 3 µM): 286 nM
- viability, T/C (second compound 0.03 µM, first compound 0.00316 µM): 102%
- viability, T/C (second compound 0.03 µM, first compound 0.01 µM): 100%
- viability, T/C (second compound 0.03 µM, first compound 0.0316 µM): 113%
- viability, T/C (second compound 0.03 µM, first compound 0.1 µM): 153%
- viability, T/C (second compound 0.03 µM, first compound 0.316 µM): 60.5%
- viability, T/C (second compound 0.03 µM, first compound 1 µM): 35.2%
- viability, T/C (second compound 0.0949 µM, first compound 0.00316 µM): 91.6%
- viability, T/C (second compound 0.0949 µM, first compound 0.01 µM): 91.1%
- viability, T/C (second compound 0.0949 µM, first compound 0.0316 µM): 151%
- viability, T/C (second compound 0.0949 µM, first compound 0.1 µM): 151%
- viability, T/C (second compound 0.0949 µM, first compound 0.316 µM): 69.5%
- viability, T/C (second compound 0.0949 µM, first compound 1 µM): 39%
- viability, T/C (second compound 0.3 µM, first compound 0.00316 µM): 87.6%
- viability, T/C (second compound 0.3 µM, first compound 0.01 µM): 108%
- viability, T/C (second compound 0.3 µM, first compound 0.0316 µM): 132%
- viability, T/C (second compound 0.3 µM, first compound 0.1 µM): 144%
- viability, T/C (second compound 0.3 µM, first compound 0.316 µM): 61.3%
- viability, T/C (second compound 0.3 µM, first compound 1 µM): 39.9%
- viability, T/C (second compound 0.949 µM, first compound 0.00316 µM): 96.2%
- viability, T/C (second compound 0.949 µM, first compound 0.01 µM): 111%
- viability, T/C (second compound 0.949 µM, first compound 0.0316 µM): 157%
- viability, T/C (second compound 0.949 µM, first compound 0.1 µM): 127%
- viability, T/C (second compound 0.949 µM, first compound 0.316 µM): 56%
- viability, T/C (second compound 0.949 µM, first compound 1 µM): 37%
- viability, T/C (second compound 3 µM, first compound 0.00316 µM): 112%
- viability, T/C (second compound 3 µM, first compound 0.01 µM): 128%
- viability, T/C (second compound 3 µM, first compound 0.0316 µM): 174%
- viability, T/C (second compound 3 µM, first compound 0.1 µM): 111%
- viability, T/C (second compound 3 µM, first compound 0.316 µM): 48.2%
- viability, T/C (second compound 3 µM, first compound 1 µM): 40.1%

SMILES: CNC(C)C(=O)NC1CN(S(=O)(=O)c2cccc(S(=O)(=O)N3CCC4CCC(C(=O)NC(c5ccccc5)c5ccccc5)N4C(=O)C(NC(=O)C(C)NC)C3)c2)CCC2CCC(C(=O)NC(c3ccccc3)c3ccccc3)N2C1=O (stereo not given) + Cc1c(S(C)(=O)=O)c(-c2cc(F)cc(N3CCN(c4ccc(NS(=O)(=O)c5ccc(NC(CCN6CCC(C(=O)OCCCP(=O)(O)O)CC6)CSc6ccccc6)c(S(=O)(=O)C(F)(F)F)c5)cc4)CC3)c2)c(-c2ccc(Cl)cc2)n1C(C)C
- IC50 (second compound 0.1 µM): > 1000 nM
- IC50 (second compound 0.316 µM): > 1000 nM
- IC50 (second compound 1 µM): > 1000 nM
- IC50 (second compound 3.16 µM): > 1000 nM
- IC50 (second compound 10 µM): > 1000 nM
- viability, T/C (second compound 0.1 µM, first compound 0.00316 µM): 100%
- viability, T/C (second compound 0.1 µM, first compound 0.01 µM): 90.4%
- viability, T/C (second compound 0.1 µM, first compound 0.0316 µM): 96%
- viability, T/C (second compound 0.1 µM, first compound 0.1 µM): 87.8%
- viability, T/C (second compound 0.1 µM, first compound 0.316 µM): 82.5%
- viability, T/C (second compound 0.1 µM, first compound 1 µM): 73.2%
- viability, T/C (second compound 0.316 µM, first compound 0.00316 µM): 110%
- viability, T/C (second compound 0.316 µM, first compound 0.01 µM): 109%
- viability, T/C (second compound 0.316 µM, first compound 0.0316 µM): 94.9%
- viability, T/C (second compound 0.316 µM, first compound 0.1 µM): 112%
- viability, T/C (second compound 0.316 µM, first compound 0.316 µM): 90.8%
- viability, T/C (second compound 0.316 µM, first compound 1 µM): 97.2%
- viability, T/C (second compound 1 µM, first compound 0.00316 µM): 90.1%
- viability, T/C (second compound 1 µM, first compound 0.01 µM): 133%
- viability, T/C (second compound 1 µM, first compound 0.0316 µM): 129%
- viability, T/C (second compound 1 µM, first compound 0.1 µM): 107%
- viability, T/C (second compound 1 µM, first compound 0.316 µM): 104%
- viability, T/C (second compound 1 µM, first compound 1 µM): 119%
- viability, T/C (second compound 3.16 µM, first compound 0.00316 µM): 138%
- viability, T/C (second compound 3.16 µM, first compound 0.01 µM): 141%
- viability, T/C (second compound 3.16 µM, first compound 0.0316 µM): 144%
- viability, T/C (second compound 3.16 µM, first compound 0.1 µM): 130%
- viability, T/C (second compound 3.16 µM, first compound 0.316 µM): 126%
- viability, T/C (second compound 3.16 µM, first compound 1 µM): 156%
- viability, T/C (second compound 10 µM, first compound 0.00316 µM): 204%
- viability, T/C (second compound 10 µM, first compound 0.01 µM): 171%
- viability, T/C (second compound 10 µM, first compound 0.0316 µM): 172%
- viability, T/C (second compound 10 µM, first compound 0.1 µM): 183%
- viability, T/C (second compound 10 µM, first compound 0.316 µM): 161%
- viability, T/C (second compound 10 µM, first compound 1 µM): 173%

SMILES: Cc1nc(N2CCC3(CC2)COC(C)C3N)c(CO)nc1Sc1ccnc(N)c1Cl (stereo not given) + CNC(C)C(=O)NC1CN(S(=O)(=O)c2cccc(S(=O)(=O)N3CCC4CCC(C(=O)NC(c5ccccc5)c5ccccc5)N4C(=O)C(NC(=O)C(C)NC)C3)c2)CCC2CCC(C(=O)NC(c3ccccc3)c3ccccc3)N2C1=O
- IC50 (second compound 0.01 µM): > 3000 nM
- IC50 (second compound 0.0316 µM): > 3000 nM
- IC50 (second compound 0.1 µM): > 3000 nM
- IC50 (second compound 0.316 µM): > 3000 nM
- IC50 (second compound 1 µM): > 3000 nM
- viability, T/C (second compound 0.01 µM, first compound 0.00949 µM): 119%
- viability, T/C (second compound 0.01 µM, first compound 0.03 µM): 132%
- viability, T/C (second compound 0.01 µM, first compound 0.0949 µM): 192%
- viability, T/C (second compound 0.01 µM, first compound 0.3 µM): 239%
- viability, T/C (second compound 0.01 µM, first compound 0.949 µM): 205%
- viability, T/C (second compound 0.01 µM, first compound 3 µM): 165%
- viability, T/C (second compound 0.0316 µM, first compound 0.00949 µM): 116%
- viability, T/C (second compound 0.0316 µM, first compound 0.03 µM): 163%
- viability, T/C (second compound 0.0316 µM, first compound 0.0949 µM): 214%
- viability, T/C (second compound 0.0316 µM, first compound 0.3 µM): 279%
- viability, T/C (second compound 0.0316 µM, first compound 0.949 µM): 211%
- viability, T/C (second compound 0.0316 µM, first compound 3 µM): 164%
- viability, T/C (second compound 0.1 µM, first compound 0.00949 µM): 120%
- viability, T/C (second compound 0.1 µM, first compound 0.03 µM): 147%
- viability, T/C (second compound 0.1 µM, first compound 0.0949 µM): 196%
- viability, T/C (second compound 0.1 µM, first compound 0.3 µM): 237%
- viability, T/C (second compound 0.1 µM, first compound 0.949 µM): 175%
- viability, T/C (second compound 0.1 µM, first compound 3 µM): 155%
- viability, T/C (second compound 0.316 µM, first compound 0.00949 µM): 111%
- viability, T/C (second compound 0.316 µM, first compound 0.03 µM): 140%
- viability, T/C (second compound 0.316 µM, first compound 0.0949 µM): 203%
- viability, T/C (second compound 0.316 µM, first compound 0.3 µM): 229%
- viability, T/C (second compound 0.316 µM, first compound 0.949 µM): 181%
- viability, T/C (second compound 0.316 µM, first compound 3 µM): 147%
- viability, T/C (second compound 1 µM, first compound 0.00949 µM): 119%
- viability, T/C (second compound 1 µM, first compound 0.03 µM): 148%
- viability, T/C (second compound 1 µM, first compound 0.0949 µM): 183%
- viability, T/C (second compound 1 µM, first compound 0.3 µM): 250%
- viability, T/C (second compound 1 µM, first compound 0.949 µM): 171%
- viability, T/C (second compound 1 µM, first compound 3 µM): 142%
